Legend:
Granta-519 [1] = assay: Induction of apoptosis in human Granta-519 cells assessed as viable cells at 2000 nM incubated for 48 hrs by Annexin-V-FITC/propidium iodide staining based flow cytometry (reference value: 92.7 %); type: functional; conditions: read-out: Activity
ATR/ATRIP = ATR/ATRIP (Homo sapiens, UniProt Q13535); assay: Inhibition of ATR/ATRIP (unknown origin) using 5-FAM-AK-17 as substrate preincubated with compound for 10 mins followed by ATP addition and measured after 240 mins by mobility shift assay; type: protein-complex assay
Sequence of ATR/ATRIP (Q13535 whole entry): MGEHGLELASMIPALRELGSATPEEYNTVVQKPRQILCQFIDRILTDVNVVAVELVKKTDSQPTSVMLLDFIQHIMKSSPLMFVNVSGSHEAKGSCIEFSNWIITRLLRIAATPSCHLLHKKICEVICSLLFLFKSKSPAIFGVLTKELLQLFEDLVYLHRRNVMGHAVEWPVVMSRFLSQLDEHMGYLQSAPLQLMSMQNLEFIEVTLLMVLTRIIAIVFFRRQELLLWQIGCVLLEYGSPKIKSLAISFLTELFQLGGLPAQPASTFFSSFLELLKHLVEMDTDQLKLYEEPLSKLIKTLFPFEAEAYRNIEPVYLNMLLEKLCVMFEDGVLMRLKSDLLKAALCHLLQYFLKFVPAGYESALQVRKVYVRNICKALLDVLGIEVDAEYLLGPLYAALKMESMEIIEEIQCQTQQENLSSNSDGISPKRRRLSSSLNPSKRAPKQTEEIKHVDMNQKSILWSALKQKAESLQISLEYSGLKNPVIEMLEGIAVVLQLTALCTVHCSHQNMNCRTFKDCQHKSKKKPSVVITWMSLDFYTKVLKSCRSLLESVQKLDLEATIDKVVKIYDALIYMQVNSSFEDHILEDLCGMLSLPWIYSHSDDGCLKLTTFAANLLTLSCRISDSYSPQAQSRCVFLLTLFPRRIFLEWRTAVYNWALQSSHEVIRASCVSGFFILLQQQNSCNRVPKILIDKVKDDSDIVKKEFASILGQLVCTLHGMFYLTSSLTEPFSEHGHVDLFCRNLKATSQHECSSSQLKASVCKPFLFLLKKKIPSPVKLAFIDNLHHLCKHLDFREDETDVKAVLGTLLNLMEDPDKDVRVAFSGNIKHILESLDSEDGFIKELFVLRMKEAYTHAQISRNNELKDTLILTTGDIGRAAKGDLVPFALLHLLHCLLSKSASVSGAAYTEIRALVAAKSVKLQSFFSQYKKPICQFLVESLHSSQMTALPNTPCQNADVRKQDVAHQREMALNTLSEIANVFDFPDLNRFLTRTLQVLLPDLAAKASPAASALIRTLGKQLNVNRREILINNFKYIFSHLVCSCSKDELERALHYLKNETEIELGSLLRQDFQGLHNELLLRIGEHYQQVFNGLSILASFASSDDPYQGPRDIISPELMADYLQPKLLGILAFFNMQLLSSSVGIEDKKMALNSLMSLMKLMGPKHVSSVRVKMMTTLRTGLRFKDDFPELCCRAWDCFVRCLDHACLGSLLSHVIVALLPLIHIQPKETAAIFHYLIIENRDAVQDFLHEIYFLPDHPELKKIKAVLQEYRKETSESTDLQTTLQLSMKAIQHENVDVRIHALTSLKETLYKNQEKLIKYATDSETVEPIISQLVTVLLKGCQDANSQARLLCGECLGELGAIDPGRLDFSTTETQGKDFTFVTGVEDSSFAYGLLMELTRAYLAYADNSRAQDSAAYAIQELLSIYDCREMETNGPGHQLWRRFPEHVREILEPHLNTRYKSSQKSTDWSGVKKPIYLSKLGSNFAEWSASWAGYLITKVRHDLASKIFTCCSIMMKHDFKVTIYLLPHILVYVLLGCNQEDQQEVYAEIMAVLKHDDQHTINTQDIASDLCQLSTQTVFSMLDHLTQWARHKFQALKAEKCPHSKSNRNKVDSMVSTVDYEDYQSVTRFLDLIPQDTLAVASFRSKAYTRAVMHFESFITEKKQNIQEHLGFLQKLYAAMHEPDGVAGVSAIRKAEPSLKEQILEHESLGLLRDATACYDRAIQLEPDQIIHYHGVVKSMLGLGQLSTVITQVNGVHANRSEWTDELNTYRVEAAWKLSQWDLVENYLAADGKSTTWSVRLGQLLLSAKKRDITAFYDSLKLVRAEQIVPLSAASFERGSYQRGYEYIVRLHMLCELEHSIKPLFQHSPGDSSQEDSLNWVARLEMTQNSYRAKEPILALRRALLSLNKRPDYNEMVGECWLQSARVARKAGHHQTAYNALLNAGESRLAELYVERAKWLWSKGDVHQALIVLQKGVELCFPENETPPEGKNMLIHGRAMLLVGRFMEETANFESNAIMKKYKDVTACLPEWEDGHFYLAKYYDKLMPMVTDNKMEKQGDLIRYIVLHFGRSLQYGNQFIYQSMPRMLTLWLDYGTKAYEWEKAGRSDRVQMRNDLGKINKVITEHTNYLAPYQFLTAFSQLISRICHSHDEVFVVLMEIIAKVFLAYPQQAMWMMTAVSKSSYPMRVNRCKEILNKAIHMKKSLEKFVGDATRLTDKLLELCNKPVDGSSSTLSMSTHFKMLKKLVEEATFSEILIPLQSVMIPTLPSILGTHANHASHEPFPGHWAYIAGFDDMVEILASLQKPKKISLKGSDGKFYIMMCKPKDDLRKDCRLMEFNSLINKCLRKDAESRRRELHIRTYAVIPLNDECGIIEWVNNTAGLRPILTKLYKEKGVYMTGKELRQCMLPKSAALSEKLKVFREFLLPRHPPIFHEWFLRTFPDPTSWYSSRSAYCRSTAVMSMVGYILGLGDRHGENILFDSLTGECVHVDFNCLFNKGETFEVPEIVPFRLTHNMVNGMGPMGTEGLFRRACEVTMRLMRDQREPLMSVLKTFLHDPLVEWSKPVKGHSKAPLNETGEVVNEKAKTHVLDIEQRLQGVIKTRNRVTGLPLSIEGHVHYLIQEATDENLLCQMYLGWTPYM
Sequence of ATR/ATRIP (Q8WXE1 whole entry, further chain): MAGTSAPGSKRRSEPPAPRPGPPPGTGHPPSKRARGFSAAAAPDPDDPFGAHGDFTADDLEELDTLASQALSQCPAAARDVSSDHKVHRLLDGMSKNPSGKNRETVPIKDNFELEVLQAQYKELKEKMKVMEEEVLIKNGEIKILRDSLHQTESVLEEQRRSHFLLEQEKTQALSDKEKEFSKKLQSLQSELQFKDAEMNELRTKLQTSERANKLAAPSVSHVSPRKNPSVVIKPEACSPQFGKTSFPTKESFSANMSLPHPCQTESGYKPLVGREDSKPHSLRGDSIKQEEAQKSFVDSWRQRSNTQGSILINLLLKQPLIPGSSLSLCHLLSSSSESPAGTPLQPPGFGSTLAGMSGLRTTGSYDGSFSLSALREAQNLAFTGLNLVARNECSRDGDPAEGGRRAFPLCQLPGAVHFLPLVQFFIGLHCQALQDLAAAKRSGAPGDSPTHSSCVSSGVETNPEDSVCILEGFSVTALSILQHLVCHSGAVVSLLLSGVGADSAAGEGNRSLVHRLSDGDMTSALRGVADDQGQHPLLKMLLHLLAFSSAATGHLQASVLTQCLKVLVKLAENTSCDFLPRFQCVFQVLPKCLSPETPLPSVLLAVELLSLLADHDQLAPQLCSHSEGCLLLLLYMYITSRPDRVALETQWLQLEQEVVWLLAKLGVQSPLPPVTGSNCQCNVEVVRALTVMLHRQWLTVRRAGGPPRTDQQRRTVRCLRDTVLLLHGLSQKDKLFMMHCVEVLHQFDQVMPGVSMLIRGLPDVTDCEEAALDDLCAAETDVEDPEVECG

[2] = molecular target: Serine/threonine-protein kinase mTOR (Homo sapiens, UniProt P42345); assay: Inhibition of human mTOR
[3] = molecular target: NUAK family SNF1-like kinase 1 (Homo sapiens, UniProt O60285); assay: Inhibition of human ARK5
[4] = molecular target: Tyrosine-protein kinase Lck (Homo sapiens, UniProt P06239); assay: Inhibition of human LCK
[5] = molecular target: Tyrosine-protein kinase BTK (Homo sapiens, UniProt Q06187); assay: Inhibition of human BTK
[6] = molecular target: Tyrosine-protein kinase Mer (Homo sapiens, UniProt Q12866); assay: Inhibition of human MER
[7] = molecular target: Serine/threonine-protein kinase BRSK2 (Homo sapiens, UniProt Q8IWQ3); assay: Inhibition of human BRSK2
[8] = molecular target: Interleukin-1 receptor-associated kinase 4 (Homo sapiens, UniProt Q9NWZ3); assay: Inhibition of human IRAK4
Aurora kinase B = Aurora kinase B (Homo sapiens, UniProt Q96GD4); assay: Inhibition of human Aurora B
[9] = molecular target: Tyrosine-protein kinase JAK1 (Homo sapiens, UniProt P23458); assay: Inhibition of human JAK1
Sequence of Tyrosine-protein kinase JAK1 (P23458 whole entry): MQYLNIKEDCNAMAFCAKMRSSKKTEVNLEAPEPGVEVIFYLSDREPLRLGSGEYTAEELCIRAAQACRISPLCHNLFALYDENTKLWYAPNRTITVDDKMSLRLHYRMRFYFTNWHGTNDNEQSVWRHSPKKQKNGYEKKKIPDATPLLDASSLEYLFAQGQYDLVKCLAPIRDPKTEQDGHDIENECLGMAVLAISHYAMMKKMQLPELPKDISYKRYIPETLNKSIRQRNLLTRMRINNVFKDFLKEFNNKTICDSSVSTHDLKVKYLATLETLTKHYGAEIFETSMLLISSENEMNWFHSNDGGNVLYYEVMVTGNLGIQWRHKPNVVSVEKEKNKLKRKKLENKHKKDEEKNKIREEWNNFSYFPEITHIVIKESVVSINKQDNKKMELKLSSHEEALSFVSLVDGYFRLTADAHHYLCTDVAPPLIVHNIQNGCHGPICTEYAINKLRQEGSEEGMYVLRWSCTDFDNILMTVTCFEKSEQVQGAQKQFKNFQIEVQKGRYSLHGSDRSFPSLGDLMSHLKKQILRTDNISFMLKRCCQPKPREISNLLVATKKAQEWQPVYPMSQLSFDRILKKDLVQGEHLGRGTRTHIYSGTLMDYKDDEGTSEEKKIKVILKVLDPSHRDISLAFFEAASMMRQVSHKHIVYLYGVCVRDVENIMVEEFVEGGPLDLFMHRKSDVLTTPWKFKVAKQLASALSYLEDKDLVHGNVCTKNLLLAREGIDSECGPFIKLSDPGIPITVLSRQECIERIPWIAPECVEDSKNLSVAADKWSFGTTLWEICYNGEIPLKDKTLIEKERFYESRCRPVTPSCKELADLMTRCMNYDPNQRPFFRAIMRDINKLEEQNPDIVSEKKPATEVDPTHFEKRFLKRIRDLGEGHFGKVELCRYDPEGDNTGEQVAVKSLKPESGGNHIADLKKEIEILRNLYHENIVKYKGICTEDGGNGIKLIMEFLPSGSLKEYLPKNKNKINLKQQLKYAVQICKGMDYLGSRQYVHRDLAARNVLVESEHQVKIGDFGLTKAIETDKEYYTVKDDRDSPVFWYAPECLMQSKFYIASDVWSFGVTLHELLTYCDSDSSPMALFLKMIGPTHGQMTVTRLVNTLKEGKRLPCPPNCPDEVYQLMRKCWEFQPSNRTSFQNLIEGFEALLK

[10] = molecular target: Cyclin-dependent kinase 2 (Homo sapiens, UniProt P24941); assay: Inhibition of human CDK2
AMPK alpha2/beta1/gamma1 = AMPK alpha2/beta1/gamma1 (Homo sapiens, UniProt P54619+P54646+Q9Y478); assay: Inhibition of human AMPK alpha2/beta1/gamma1; type: protein-complex assay
[11] = molecular target: Tyrosine-protein kinase Lyn (Homo sapiens, UniProt P07948); assay: Inhibition of human LYN
[12] = molecular target: Serine/threonine-protein kinase 17B (Homo sapiens, UniProt O94768); assay: Inhibition of human DRAK2
[13] = molecular target: Receptor-type tyrosine-protein kinase FLT3 (Homo sapiens, UniProt P36888); assay: Inhibition of human FLT3
[14] = Lipophilicity, logD of compound at pH 7.4; type: physicochemical; conditions: buffer
[15] = Plasma protein binding in mouse; type: ADME, cell-free; conditions: read-out: PPB (converted)
[16] = Apparent permeability across apical to basolateral side in human Caco-2 cells; type: ADME, cell-based
[17] = Apparent permeability across basolateral to apical side in human Caco-2 cells; type: ADME, cell-based
[18] = Apparent permeability across apical to basolateral side in dog MDCK-MDR1 cells; type: ADME, cell-based, Canis lupus familiaris
[19] = Apparent permeability across basolateral to apical side in dog MDCK-MDR1 cells; type: ADME, cell-based, Canis lupus familiaris
CYP1A2 = CYP1A2 (Homo sapiens, UniProt P05177); assay: Time dependent inhibition of CYP1A2 (unknown origin) at 10 uM relative to control; type: ADME; conditions: read-out: TDI
Sequence of CYP1A2 (P05177 whole entry): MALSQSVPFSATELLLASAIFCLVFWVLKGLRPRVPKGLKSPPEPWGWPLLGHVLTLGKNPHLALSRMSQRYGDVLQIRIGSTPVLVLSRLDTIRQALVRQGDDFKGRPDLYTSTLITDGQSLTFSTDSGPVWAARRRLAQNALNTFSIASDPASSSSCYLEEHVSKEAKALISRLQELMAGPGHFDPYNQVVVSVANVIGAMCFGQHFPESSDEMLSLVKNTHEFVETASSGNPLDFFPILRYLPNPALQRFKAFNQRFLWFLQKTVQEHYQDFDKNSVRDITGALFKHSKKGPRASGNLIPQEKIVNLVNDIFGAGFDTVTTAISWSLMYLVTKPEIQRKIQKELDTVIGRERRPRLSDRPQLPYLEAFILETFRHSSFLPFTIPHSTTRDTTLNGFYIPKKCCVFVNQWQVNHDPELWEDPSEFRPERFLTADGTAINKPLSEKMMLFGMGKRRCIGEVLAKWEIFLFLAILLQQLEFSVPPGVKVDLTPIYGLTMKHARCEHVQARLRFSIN

CYP2C9 = CYP2C9 (Homo sapiens, UniProt P11712); assay: Time dependent inhibition of CYP2C9 (unknown origin) at 10 uM relative to control; type: ADME; conditions: read-out: TDI
[20] = AUClast in ICR mouse at 50 mg/kg,po measured upto 24 hrs by LC-MS/MS analysis; type: ADME, organism-based; conditions: in vivo
CYP2C19 = CYP2C19 (Homo sapiens, UniProt P33261); assay: Time dependent inhibition of CYP2C19 (unknown origin) at 10 uM relative to control; type: ADME; conditions: read-out: TDI
CYP2D6 = CYP2D6 (Homo sapiens, UniProt P10635); assay: Time dependent inhibition of CYP2D6 (unknown origin) at 10 uM relative to control; type: ADME; conditions: read-out: TDI
CYP3A4 = CYP3A4 (Homo sapiens, UniProt P08684); assay: Time dependent inhibition of CYP3A4 (unknown origin) at 10 uM relative to control; type: ADME; conditions: read-out: TDI
[21] = Half life in ICR mouse at 50 mg/kg,po measured upto 24 hrs by LC-MS/MS analysis; type: ADME, organism-based; conditions: in vivo
[22] = Tmax in ICR mouse at 50 mg/kg,po measured upto 24 hrs by LC-MS/MS analysis; type: ADME, organism-based; conditions: in vivo
[23] = Cmax in ICR mouse at 50 mg/kg,po measured upto 24 hrs by LC-MS/MS analysis; type: ADME, organism-based; conditions: in vivo
[24] = AUCinfinity in ICR mouse at 50 mg/kg,po measured upto 24 hrs by LC-MS/MS analysis; type: ADME, organism-based; conditions: in vivo
[25] = molecular target: Serine/threonine-protein kinase ATR (Homo sapiens, UniProt Q13535); assay: Inhibition of human ATR
Sequence of Serine/threonine-protein kinase ATR (Q13535 whole entry): as the sequence (Q13535 whole entry) above

[26] = molecular target: Serine-protein kinase ATM (Homo sapiens, UniProt Q13315); assay: Inhibition of human ATM
[27] = molecular target: DNA-dependent protein kinase catalytic subunit (Homo sapiens, UniProt P78527); assay: Inhibition of human DNA-PK
[28] = molecular target: Phosphatidylinositol 4,5-bisphosphate 3-kinase catalytic subunit alpha isoform (Homo sapiens, UniProt P42336); assay: Inhibition of human PI3Kalpha
[29] = Brain to plasma ratio in ICR mouse at 50 mg/kg,po measured upto 24 hrs by LC-MS/MS analysis; type: ADME, organism-based
Granta-519 [30] = assay: Induction of apoptosis in human Granta-519 cells assessed as viable cells at 500 nM incubated for 48 hrs by Annexin-V-FITC/propidium iodide staining based flow cytometry (reference value: 92.7 %); type: functional; conditions: read-out: Activity
Granta-519 [31] = assay: Induction of apoptosis in human Granta-519 cells assessed as viable cells at 1000 nM incubated for 48 hrs by Annexin-V-FITC/propidium iodide staining based flow cytometry (reference value: 92.7 %); type: functional; conditions: read-out: Activity
[32] = Acute toxicity in Beagle dog assessed as change in body weight at 10 to 90 mg/kg,po once daily for 7 days; type: organism-based, Canis lupus familiaris; conditions: in vivo, 168 h, dose 10-90 mg/kg, time 7 day
[33] = Acute toxicity in Beagle dog assessed as change in platelet count at 10 to 90 mg/kg,po once daily for 7 days; type: organism-based, Canis lupus familiaris; conditions: in vivo, 168 h, dose 10-90 mg/kg, time 7 day
[34] = Acute toxicity in Beagle dog assessed as change in serum creatinine level at 10 to 90 mg/kg,po once daily for 7 days; type: organism-based, Canis lupus familiaris; conditions: in vivo, 168 h, dose 10-90 mg/kg, time 7 day
[35] = Toxicity in CB17-SCID mouse xenografted with human Granta-519 cells assessed as change in body weight at 50 mg/kg,po bid for 3 weeks administrated 5 days weekly; type: organism-based; conditions: in vivo, 504 h
[36] = Toxicity in BALB/c mouse xenografted with human A2780 cells assessed as change in body weight at 50 mg/kg,po bid for 3 weeks administrated 5 days weekly; type: organism-based; conditions: in vivo, 504 h
[37] = Toxicity in BALB/c mouse xenografted with human PC-3 cells assessed as change in body weight at 50 mg/kg,po bid for 3 weeks administrated 5 days weekly; type: organism-based; conditions: in vivo, 504 h
[38] = Toxicity in CB17-SCID mouse xenografted with human Granta-519 cells assessed as change in body weight at 50 mg/kg,po once daily for 3 weeks administrated 5 days weekly in presence of niraparib; type: organism-based; conditions: in vivo, 504 h
[39] = Toxicity in BALB/c mouse xenografted with human HT-29 cells assessed as change in body weight at 50 mg/kg,po once daily for 4 weeks in presence of 3 Gy of ionizing radiation; type: organism-based; conditions: in vivo, 672 h
[40] = Toxicity in BALB/c mouse xenografted with human CAPAN-1 cells assessed as change in body weight at 50 mg/kg,po once daily for 3 weeks administrated 4 days weekly in presence of gemcitabine; type: organism-based; conditions: in vivo, 504 h

`C[C@@H]1COCCN1c1nc(-c2ccnc3[nH]ccc23)nc2c1ccn2S(C)(=O)=O` showed a viability at 2 µM (Granta-519 [1]) of 76.9%, an IC50 (ATR/ATRIP) of 0.0016 µM and an IC50 [2] of 0.0458 µM. The IC50 [3] was 7.31 µM, the IC50 [4] was 2.59 µM and the IC50 [5] was greater than 10 µM. It also gave an IC50 [6] greater than 10 µM, an IC50 [7] greater than 10 µM and an IC50 [8] greater than 10 µM. It also gave an IC50 (Aurora kinase B) greater than 10 µM, an IC50 [9] greater than 10 µM and an IC50 [10] greater than 10 µM. For the same compound, the IC50 (AMPK alpha2/beta1/gamma1) was greater than 10 µM, the IC50 [11] was greater than 10 µM and the IC50 [12] was greater than 10 µM. For the same compound, the IC50 [13] was greater than 10 µM, the logD [14] was 3.61 and the fraction unbound [15] was 0.005. The Papp A→B [16] was 39.6 ×10⁻⁶ cm/s, the Papp B→A [17] was 32.5 ×10⁻⁶ cm/s and the Papp A→B [18] was 41.9 ×10⁻⁶ cm/s. The Papp B→A [19] was 51.2 ×10⁻⁶ cm/s, the inhibition at 10 µM (CYP1A2) was 37.5% and the inhibition at 10 µM (CYP2C9) was 7.09%. The AUC(0-t) at 24 h [20] was 140 µg·h/mL, the inhibition at 10 µM (CYP2C19) was 12.1% and the inhibition at 10 µM (CYP2D6) was 2%. It also gave an inhibition at 10 µM (CYP3A4) of 21.2%, a half-life [21] of 2.29 h and a Tmax [22] of 1 h. The Cmax [23] was 19800 ng/mL, the AUC(0-inf) [24] was 140 µg·h/mL and the IC50 [25] was 0.0025 µM. It also gave an IC50 [26] of 3.21 µM, an IC50 [27] of 0.119 µM and an IC50 [28] of 2.06 µM. It also gave a BPR [29] of 31%, a viability at 0.5 µM (Granta-519 [30]) of 89.6% and a viability at 1 µM (Granta-519 [31]) of 81.3%. The Activity [32] was “Non-Toxic”, the Activity [33] was “Toxic” and the Activity [34] was “Toxic”. The Activity [35] was “Toxic”, the Activity [36] was “Toxic” and the Activity [37] was “Toxic”. For the same compound, the Activity [38] was “Toxic”, the Activity [39] was “Toxic” and the Activity [40] was “Toxic”.

From ChEMBL document CHEMBL5523766 (J Med Chem, 2024)
